What all share (type): cell-based, human
One test deals with BT-474. Description: MTT anti-proliferation assay. The following applies: Homo sapiens, BT-474, 24 h treatment. The procedure:
(§1) Initial experiments were performed for evaluation of growth inhibition by the new compounds against six human breast cancer cell lines, including MCF-7 (ER+/PR+, HER-2-), BT474 (ER+/PR+, HER-2+), SKBR-3 (ER-/PR-/HER-2+), MDA-MB-436 (ER-/PR-/HER-2-), MDA-MB-231 (ER-/PR-/HER-2-), MDA-MB-468 (ER-/PR-/HER-2-) and non-tumorigenic MCF-10A cells. After 24 h treatment by the obtained compounds, the inhibition was assessed and the IC50 was summarized. […] Subsequently, the inhibition of STAT3 activation by PMM-172 and Stattic was evaluated using a dual-luciferase assay.
(§2) The anti-proliferative activities of the prepared compounds against MCF-7 (ER+/PR+, HER-2-), BT474 (ER+/PR+, HER-2+), SKBR-3 (ER-/PR-/HER-2+), MDA-MB-436 (ER-/PR-/HER-2-), MDA-MB-231 (ER-/PR-/HER-2-), MDA-MB-468 (ER-/PR-/HER-2-) and non-tumorigenic MCF-10A cell lines were evaluated using a standard (MTT)-based colorimetric assay with some modification. Cell lines were grown to log phase in DMEM supplemented with 10% fetal bovine serum. Cell suspensions were prepared and 100 μL/well dispensed into 96-well plates giving 10^4 cells/well. The subsequent incubation was permitted at 37 °C, 5% CO2 atmosphere for 24 h to allow the cells to reattach. Subsequently, cells were treated with the target compounds at increasing concentrations in the presence of 10% FBS for 24 h. Then, cell viability was assessed by the conventional 3-(4, 5-dimethylthiazol-2-yl)-2, 5-diphenyltetrazolium bromide (MTT) reduction assay and carried out strictly according to the manufacturer instructions. The absorbance (OD570) was read on an ELISA reader (Tecan, Austria). In all experiments, three replicate wells were used for each drug concentration. Each assay was carried out for at least three times.
Background: Tetrazolium assays rely on reduction of a dye to a coloured formazan, in cell work by metabolically active cells.

A further test has as its system MCF-7. Put plainly: MTT anti-proliferation assay. The following applies: Homo sapiens, MCF7, 24 h treatment. The procedure:
as §1, §2

In another test the test system is MDA-MB-231. Put plainly: MTT anti-proliferation assay. The following applies: Homo sapiens, MDA-MB-231, 24 h treatment. How it is done: as §1, §2
A further test has as its system MDA-MB-436. Description: MTT anti-proliferation assay. The following applies: Homo sapiens, MDA-MB-436, 24 h treatment. How it is done: as §1, §2
For the next test, the system named is MDA-MB-468. Put plainly: MTT anti-proliferation assay. The following applies: Homo sapiens, MDA-MB-468, 24 h treatment. The procedure:
as §1, §2

The subject of the next test is SKBR-3. Put plainly: MTT anti-proliferation assay. The following applies: Homo sapiens, SK-BR-3, 24 h treatment. The procedure: as §1, §2
Test [1] concerns STAT3 nuclear localization in MDA-MB-231 cells. Description: STAT3 nuclear localization (cytoplasmic and nuclear extracts, Western blot). The following applies: MDA-MB-231, 24 h. The procedure:
It is known that the dimerization of STAT3 is induced by the phosphorylation at residue Tyr 705, which then leads to its nuclear translocation. Herein, we investigated the effect of PMM-172 and Stattic on STAT3 nuclear translocation. The cytoplasmic and nuclear proteins of treated cells were extracted and the expressions of STAT3 in both fractions were examined.
Figure 7 MDA-MB-231 cells were treated with indicated concentrations of PMM-172 or Stattic for 24 h, the expression levels of STAT3 in cytoplasmic and nuclear extracts were examined and relative expression levels were analyzed by Image J software. β-actin and Lamin B1 served as markers of cytoplasmic and nuclear extractions, respectively. […] (C) MCF-10A cells were treated with the indicated concentrations of PMM-172 for 24 h. PMM-172 had no effect on the level of the pSTAT3 level in MCF-10A cells. […] Data were shown as mean ± SD from three independent experiments, **P < 0.01. Cropped blots/gels were used in the figure and the gels had been run under the same experimental conditions; the full-length blots/gels are presented in Supplementary Figure S3.
To examine the relative proportion of STAT3 in the cytoplasm and nucleus, cytoplasmic and nuclear extracts were prepared. In brief, control and treated cells were collected and suspended in a buffer containing 10 mM HEPES (pH 7.9), 10 mM KCl, 0.1 mM EDTA (pH 8.0), 0.1 mM EGTA (pH 7.0), 1 mM DTT, 0.5 mM PMSF, 2 μg/mL leupeptin, 2 μg/mL aprotonin, 0.5 mg/mL benzamidine. After 15 min, NP-40 (0.25%) was added, and cell lysate was vortexed for 10 s and centrifuged at 10000 rmp at 4 °C for 1 min. […] The protein content in the nuclear and cytoplasmic fractions was determined using a Pierce BCA protein assay kit.
Cells were rinsed twice with cold PBS and then lysed with RIPA buffer containing a protease inhibitor mixture at 1:100 dilution on ice for 30 min. Insoluble components of cell lysates were removed by centrifugation (4 °C, 12000 rmp, 10 min), and protein concentrations were measured using a Pierce BCA protein assay kit. […]
Background: In western blotting, separated proteins are transferred to a membrane and probed.

In general, IC50 refers to the concentration at which inhibition is half-maximal. On to `COc1cc(OC)cc(-c2nnc(SCC(=O)O[C@H](CC=C(C)C)C3=CC(=O)c4c(O)ccc(O)c4C3=O)o2)c1` [PMM-172, (R)-1-(5,8-dihydroxy-1,4-dioxo-1,4-dihydronaphthalen-2-yl)-4-methylpent-3-en-1-yl 2-((5-(3,5-dimethoxyphenyl)-1,3,4-oxadiazol-2-yl)thio)acetate], for which the IC50 in the test with BT-474 turned out to be 5.26 ± 0.66 µM; in the test on MCF-7, 4.87 ± 0.55 µM; in the test on MDA-MB-231, 1.98 ± 0.49 µM; with MDA-MB-436, 3.07 ± 0.47 µM; in the test with MDA-MB-468, 3.24 ± 0.27 µM; with SKBR-3 it was 3.14 ± 0.46 µM. Moreover, the “level of STAT3 in the cytoplasmic fraction” value in test [1] was “slightly increased”. Further, the “level of STAT3 in the nuclear fraction” value in test [1] is listed as “decreased by PMM-172 in a dose-dependent manner”.

The values above are taken from paper PMC5460289, “Identification of New Shikonin Derivatives as Antitumor Agents Targeting STAT3 SH2 Domain” (Scientific Reports, 2017).
